The text below walks through data of patent US20240270741A1 (Cogent Biosciences, Inc., priority 2023, published 2024).

The target in this assay is FGFR2 (Homo sapiens, UniProt P21802). Description: FGFR wild type enzyme assay (HTRF KinEASE-TK), FGFR2. Conditions: Enz FGFR2 (nM), FGFR2 wild type enzyme assay. Background: In TR-FRET formats the signal depends on donor and acceptor labels being close together.
FGFR2, sequence (P21802 399-821 limits assumed): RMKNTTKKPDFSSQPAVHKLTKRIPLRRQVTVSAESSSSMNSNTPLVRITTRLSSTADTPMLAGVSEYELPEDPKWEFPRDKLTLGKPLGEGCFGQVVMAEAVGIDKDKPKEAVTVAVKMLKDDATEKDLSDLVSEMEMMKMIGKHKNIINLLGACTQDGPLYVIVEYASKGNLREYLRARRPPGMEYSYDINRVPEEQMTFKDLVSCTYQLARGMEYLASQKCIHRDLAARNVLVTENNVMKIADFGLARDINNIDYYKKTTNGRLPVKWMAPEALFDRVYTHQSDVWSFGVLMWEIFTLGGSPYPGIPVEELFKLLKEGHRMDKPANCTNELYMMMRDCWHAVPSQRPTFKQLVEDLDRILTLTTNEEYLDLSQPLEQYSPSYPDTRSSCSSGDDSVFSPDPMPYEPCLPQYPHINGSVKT
Broadly, the IC50 is the concentration needed to halve the response being measured. In turn, `CC(C)(O)Cn1cc(-c2cc(Sc3ccccc3C#N)c3c(C#N)cnn3c2)cn1` [Example 494, 4-((2-cyanophenyl)thio)-6-(1-(2-hydroxy-2-methylpropyl)-1H-pyrazol-4-yl)pyrazolo[1,5-a]pyridine-3-carbonitrile] showed an IC50 of 1 nM.
Then `N#Cc1ccccc1Sc1cc(-c2ccc(N3CCOCC3)nc2)cn2ncc(C#N)c12` [Example 495, 4-((2-cyanophenyl)thio)-6-(6-morpholinopyridin-3-yl)pyrazolo[1,5-a]pyridine-3-carbonitrile], with 1 nM.
The result for `Cc1c(-c2cc(Sc3ccc(F)cc3C#N)c3c(C#N)cnn3c2)cnn1[C@H]1CCC[C@H](O)C1` [Example 496, 4-((2-cyano-4-fluorophenyl)thio)-6-(1-((1S,3S)-3-hydroxycyclohexyl)-5-methyl-1H-pyrazol-4-yl)pyrazolo[1,5-a]pyridine-3-carbonitrile] reads 3 nM; that for `Cc1c(-c2cc(Sc3ccc(F)cc3C#N)c3c(C#N)cnn3c2)cnn1[C@@H]1CCC[C@@H](O)C1` [Example 497, 4-((2-cyano-4-fluorophenyl)thio)-6-(1-((1R,3R)-3-hydroxycyclohexyl)-5-methyl-1H-pyrazol-4-y)pyrazolo[1,5-a]pyridine-3-carbonitrile], 1 nM; that for `Cc1c(-c2cc(Sc3ccc(F)cc3C#N)c3c(C#N)cnn3c2)cnn1[C@H]1CCC[C@@H](O)C1` [Example 498, 4-((2-cyano-4-fluorophenyl)thio)-6-(1-((1S,3R)-3-hydroxycyclohexyl)-5-methyl-1H-pyrazol-4-yl)pyrazolo[1,5-a]pyridine-3-carbonitrile], 2 nM.
`Cc1c(-c2cc(Sc3ccc(F)cc3C#N)c3c(C#N)cnn3c2)cnn1[C@@H]1CCC[C@H](O)C1` [Example 499, 4-((2-cyano-4-fluorophenyl)thio)-6-(1-((1R,3S)-3-hydroxycyclohexyl)-5-methyl-1H-pyrazol-4-yl)pyrazolo[1,5-a]pyridine-3-carbonitrile] displayed an IC50 of 1 nM.
The result for `C[C@]1(O)CC[C@@H](n2cc(-c3cc(Sc4ccc(F)cc4C#N)c4c(C#N)cnn4c3)cn2)CC1` [Example 500, 4-((2-cyano-4-fluorophenyl)thio)-6-(1-((1s,4s)-4-hydroxy-4-methylcyclohexyl)-1H-pyrazol-4-yl)pyrazolo[1,5-a]pyridine-3-carbonitrile] reads 1 nM; that for `C[C@]1(O)CC[C@H](n2cc(-c3cc(Sc4ccc(F)cc4C#N)c4c(C#N)cnn4c3)cn2)CC1` [Example 501, 4-((2-cyano-4-fluorophenyl)thio)-6-(1-((1r,4r)-4-hydroxy-4-methylcyclohexyl)-1H-pyrazol-4-yl)pyrazolo[1,5-a]pyridine-3-carbonitrile], 1 nM; that for `C[C@@H](O)C(=O)N1CCC(n2cc(-c3cc(Sc4ccc(F)cc4C#N)c4c(C#N)cnn4c3)cn2)CC1` [Example 502, (R)-4-((2-cyano-4-fluorophenyl)thio)-6-(1-(1-(2-hydroxypropanoyl)piperidin-4-yl)-1H-pyrazol-4-yl)pyrazolo[1,5-a]pyridine-3-carbonitrile], 1 nM.
The result for `C[C@]1(O)CC[C@@H](n2cc(-c3cc(Sc4ccccc4C#N)c4c(C#N)cnn4c3)cn2)CC1` [Example 503, 4-((2-cyanophenyl)thio)-6-(1-((1s,4s)-4-hydroxy-4-methylcyclohexyl)-1H-pyrazol-4-yl)pyrazolo[1,5-a]pyridine-3-carbonitrile] reads 0.5 nM; that for `C[C@]1(O)CC[C@H](n2cc(-c3cc(Sc4ccccc4C#N)c4c(C#N)cnn4c3)cn2)CC1` [Example 504, 4-((2-cyanophenyl)thio)-6-(1-((1r,4r)-4-hydroxy-4-methylcyclohexyl)-1H-pyrazol-4-yl)pyrazolo[1,5-a]pyridine-3-carbonitrile], 0.4 nM; that for `CN1CC(n2cc(-c3cc(Sc4ncccc4F)c4c(C#N)cnn4c3)cn2)CCC1=O` (stereo not drawn) [Example 505, 4-((3-fluoropyridin-2-yl)thio)-6-(1-(1-methyl-6-oxopiperidin-3-yl)-1H-pyrazol-4-yl)pyrazolo[1,5-a]pyridine-3-carbonitrile], 3 nM.
With `CN1CCC(n2cc(-c3cc(Sc4ncccc4F)c4c(C#N)cnn4c3)cn2)CC1=O` (stereo not drawn) [Example 506, 4-((3-fluoropyridin-2-yl)thio)-6-(1-(1-methyl-2-oxopiperidin-4-yl)-1H-pyrazol-4-yl)pyrazolo[1,5-a]pyridine-3-carbonitrile], half-maximal inhibition (IC50) required 1 nM.
The result for `N#Cc1nn([C@H]2CCCNC2)cc1-c1cc(Sc2ncccc2F)c2c(C#N)cnn2c1` [Example 507, (S)-6-(3-cyano-1-(piperidin-3-yl)-1H-pyrazol-4-yl)-4-((3-fluoropyridin-2-y)thio)pyrazolo[1,5-a]pyridine-3-carbonitrile] reads 30 nM; that for `CNC(=O)c1nn([C@H]2CCCNC2)cc1-c1cc(Sc2ncccc2F)c2c(C#N)cnn2c1` [Example 508, (S)-4-(3-cyano-4-((3-fluoropyridin-2-yl)thio)pyrazolo[1,5-a]pyridin-6-yl)-N-methyl-1-(piperidin-3-yl)-1H-pyrazole-3-carboxamide], 48 nM; that for `N#Cc1cnn2cc(-c3cn([C@H]4CCCNC4)c4nccnc34)cc(Sc3ncccc3F)c12` [Example 509, (S)-4-((3-fluoropyridin-2-yl)thio)-6-(5-(piperidin-3-yl)-5H-pyrrolo[2,3-b]pyrazin-7-yl)pyrazolo[1,5-a]pyridine-3-carbonitrile], 22 nM.
The result for `CC(C)(CO)N1CC[C@H](n2cc(-c3cc(Sc4ncccc4F)c4c(C#N)cnn4c3)cn2)C1` [Example 510, (S)-4-((3-fluoropyridin-2-yl)thio)-6-(1-(1-(1-hydroxy-2-methylpropan-2-yl)pyrrolidin-3-yl)-1H-pyrazol-4-yl)pyrazolo[1,5-a]pyridine-3-carbonitrile] reads 1 nM; that for `Cc1c(-c2cc(Sc3ccc(F)cc3C#N)c3c(C#N)cnn3c2)cnn1CCO` [Example 511, 4-((2-cyano-4-fluorophenyl)thio)-6-(1-(2-hydroxyethyl)-5-methyl-1H-pyrazol-4-yl)pyrazolo[1,5-a]pyridine-3-carbonitrile], 8 nM; that for `Cc1c(-c2cc(Sc3ccc(F)cc3C#N)c3c(C#N)cnn3c2)cnn1[C@H]1CCCN(C(=O)[C@@H](C)O)C1` [Example 512, 4-((2-cyano-4-fluorophenyl)thio)-6-(1-((S)-1-((R)-2-hydroxypropanoyl)piperidin-3-yl)-5-methyl-1H-pyrazol-4-yl)pyrazolo[1,5-a]pyridine-3-carbonitrile], 1 nM.
Compound `CS(=O)(=O)N1CCC(n2cc(-c3cc(Sc4ccccc4C#N)c4c(C#N)cnn4c3)cn2)CC1` [Example 513, 4-((2-cyanophenyl)thio)-6-(1-(1-(methylsulfonyl)piperidin-4-yl)-1H-pyrazol-4-yl)pyrazolo[1,5-a]pyridine-3-carbonitrile] displayed an IC50 of 1 nM.
The compound `CS(=O)(=O)N1CCC[C@H](n2cc(-c3cc(Sc4ccccc4C#N)c4c(C#N)cnn4c3)cn2)C1` [Example 514, (S)-4-((2-cyanophenyl)thio)-6-(1-(1-(methylsulfonyl)piperidin-3-yl)-1H-pyrazol-4-yl)pyrazolo[1,5-a]pyridine-3-carbonitrile] showed a half-maximal inhibitory concentration (IC50) of 1 nM.
Consider `CN1CCC[C@H](n2cc(-c3cc(Sc4ccccc4C#N)c4c(C#N)cnn4c3)cn2)C1` [Example 515, (S)-4-((2-cyanophenyl)thio)-6-(1-(1-methylpiepridin-3-yl)-1H-pyrazol-4-yl)pyrazolo[1,5-a]pyridine-3-carbonitrile], for which the IC50 is 1 nM.
The result for `CC(=O)N1CCC[C@H](n2cc(-c3cc(Sc4ccccc4C#N)c4c(C#N)cnn4c3)cn2)C1` [Example 516, (S)-6-(1-(1-acetylpiperidin-3-yl)-1H-pyrazol-4-yl)-4-((2-cyanophenyl)thio)pyrazolo [1,5-a]pyridine-3-carbonitrile] reads 0.4 nM; that for `N#Cc1ccccc1Sc1cc(-c2cnn([C@H]3CCCN(C(=O)CO)C3)c2)cn2ncc(C#N)c12` [Example 517, (S)-4-((2-cyanophenyl)thio)-6-(1-(1-(2-hydroxyacetyl)piperidin-3-yl)-1H-pyrazol-4-yl)pyrazolo[1,5-a]pyridine-3-carbonitrile], 0.4 nM.
The result for `N#Cc1ccccc1Sc1cc(-c2cnn([C@H]3CCCC[C@@H]3O)c2)cn2ncc(C#N)c12` [Example 518, 4-((2-cyanophenyl)thio)-6-(1-((1S,2S)-2-hydroxycyclohexyl)-1H-pyrazol-4-yl)pyrazolo[1,5-a]pyridine-3-carbonitrile] reads 0.4 nM; that for `N#Cc1ccccc1Sc1cc(-c2cnn([C@@H]3CCCC[C@H]3O)c2)cn2ncc(C#N)c12` [Example 519, 4-((2-cyanophenyl)thio)-6-(1-((1R,2R)-2-hydroxycyclohexyl)-1H-pyrazol-4-yl)pyrazolo[1,5-a]pyridine-3-carbonitirle], 1 nM.
With `CC(=O)N1CCCC(n2cc(-c3cc(Sc4ccccc4C#N)c4c(C#N)cnn4c3)cn2)CC1` (stereo not drawn) [Example 520, 6-(1-(1-acetylazepan-4-yl)-1H-pyrazol-4-yl)-4-((2-cyanophenyl)thio)pyrazolo [1,5-a]pyridine-3-carbonitrile], 0.4 nM corresponded to half-maximal inhibition (IC50).
Then `N#Cc1cnn2cc(-c3cnn(CCCO)c3)cc(Sc3ncccc3F)c12` [Example 521, 4-((3-fluoropyridin-2-yl)thio)-6-(1-(3-hydroxypropyl)-1H-pyrazol-4-yl)pyrazolo[1,5-a]pyridine-3-carbonitrile], with 2 nM; and `N#Cc1cnn2cc(-c3cnn(C[C@@H](O)CO)c3)cc(Sc3ncccc3F)c12` [Example 522, (R)-6-(1-(2,3-dihydroxypropyl)-1H-pyrazol-4-yl)-4-((3-fluoropyridin-2-yl)thio)pyrazolo[1,5-a]pyridine-3-carbonitrile], with 2 nM; and `N#Cc1cnn2cc(-c3cnn(C[C@H](O)CO)c3)cc(Sc3ncccc3F)c12` [Example 523, (S)-6-(1-(2,3-dihydroxypropyl)-1H-pyrazol-4-yl)-4-((3-fluoropyridin-2-yl)thio)pyrazolo[1,5-a]pyridine-3-carbonitrile], with 2 nM.
